Values belong to the molecule of their own block, whether it stands above or below them.
Assays:
[1] = biological target: Serine/threonine-protein kinase PAK 1 (Homo sapiens) (UniProt Q13153); settings: at 10 µM
[2] = biological target: Serine/threonine-protein kinase pim-1 (Homo sapiens, UniProt P11309); settings: at 10 µM
[3] = biological target: T1, Eukaryotic translation initiation factor 2-alpha kinase 3 (Homo sapiens) (UniProt Q9NZJ5); assay: Selectivity interaction (ActivX KiNativ screen (kinase selectivity in THP-1 cell lysates)) EUB0000639a EIF2AK3; format: subcellular; settings: lysate
T1 sequence (whole entry): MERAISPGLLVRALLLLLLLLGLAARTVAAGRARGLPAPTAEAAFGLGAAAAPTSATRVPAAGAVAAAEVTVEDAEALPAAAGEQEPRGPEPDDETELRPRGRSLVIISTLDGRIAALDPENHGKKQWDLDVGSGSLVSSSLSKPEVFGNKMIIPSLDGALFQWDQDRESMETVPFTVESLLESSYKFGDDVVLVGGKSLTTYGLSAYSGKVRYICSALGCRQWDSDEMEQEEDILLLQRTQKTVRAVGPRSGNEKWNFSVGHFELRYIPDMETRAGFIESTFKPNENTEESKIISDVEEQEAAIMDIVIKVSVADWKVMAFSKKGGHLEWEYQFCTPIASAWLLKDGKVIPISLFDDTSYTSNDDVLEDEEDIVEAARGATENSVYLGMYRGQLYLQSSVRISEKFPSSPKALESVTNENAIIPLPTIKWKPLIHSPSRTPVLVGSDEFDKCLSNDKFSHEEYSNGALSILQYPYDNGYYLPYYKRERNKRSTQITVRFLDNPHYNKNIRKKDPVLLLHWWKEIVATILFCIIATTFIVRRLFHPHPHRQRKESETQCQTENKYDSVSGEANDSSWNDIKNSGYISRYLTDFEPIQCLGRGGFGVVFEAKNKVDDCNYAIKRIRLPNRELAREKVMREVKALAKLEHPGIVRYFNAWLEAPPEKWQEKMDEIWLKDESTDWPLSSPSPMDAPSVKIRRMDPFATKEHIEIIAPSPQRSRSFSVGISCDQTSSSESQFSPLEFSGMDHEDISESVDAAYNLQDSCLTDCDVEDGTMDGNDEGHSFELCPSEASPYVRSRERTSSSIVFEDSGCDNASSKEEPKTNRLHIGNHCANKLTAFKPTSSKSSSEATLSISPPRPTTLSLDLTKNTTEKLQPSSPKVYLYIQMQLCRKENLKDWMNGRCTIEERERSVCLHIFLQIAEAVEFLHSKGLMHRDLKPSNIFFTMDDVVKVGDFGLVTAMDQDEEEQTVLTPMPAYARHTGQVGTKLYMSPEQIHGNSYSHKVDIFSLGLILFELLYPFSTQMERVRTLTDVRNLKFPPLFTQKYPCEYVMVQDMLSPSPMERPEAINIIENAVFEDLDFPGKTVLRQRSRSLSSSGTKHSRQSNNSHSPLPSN

[4] = biological target: Rho-associated protein kinase 1 (Homo sapiens) (UniProt Q13464); assay: Selectivity interaction (ActivX KiNativ screen (kinase selectivity in THP-1 cell lysates)) EUB0000639a ROCK1; format: subcellular; settings: lysate
[5] = biological target: T2, Serine/threonine-protein kinase BRSK2 (Homo sapiens) (UniProt Q8IWQ3); assay: Selectivity interaction (KinomeScan (DiscoverX)) EUB0001079a BRSK2; settings: at 1 µM
T2 sequence (whole entry): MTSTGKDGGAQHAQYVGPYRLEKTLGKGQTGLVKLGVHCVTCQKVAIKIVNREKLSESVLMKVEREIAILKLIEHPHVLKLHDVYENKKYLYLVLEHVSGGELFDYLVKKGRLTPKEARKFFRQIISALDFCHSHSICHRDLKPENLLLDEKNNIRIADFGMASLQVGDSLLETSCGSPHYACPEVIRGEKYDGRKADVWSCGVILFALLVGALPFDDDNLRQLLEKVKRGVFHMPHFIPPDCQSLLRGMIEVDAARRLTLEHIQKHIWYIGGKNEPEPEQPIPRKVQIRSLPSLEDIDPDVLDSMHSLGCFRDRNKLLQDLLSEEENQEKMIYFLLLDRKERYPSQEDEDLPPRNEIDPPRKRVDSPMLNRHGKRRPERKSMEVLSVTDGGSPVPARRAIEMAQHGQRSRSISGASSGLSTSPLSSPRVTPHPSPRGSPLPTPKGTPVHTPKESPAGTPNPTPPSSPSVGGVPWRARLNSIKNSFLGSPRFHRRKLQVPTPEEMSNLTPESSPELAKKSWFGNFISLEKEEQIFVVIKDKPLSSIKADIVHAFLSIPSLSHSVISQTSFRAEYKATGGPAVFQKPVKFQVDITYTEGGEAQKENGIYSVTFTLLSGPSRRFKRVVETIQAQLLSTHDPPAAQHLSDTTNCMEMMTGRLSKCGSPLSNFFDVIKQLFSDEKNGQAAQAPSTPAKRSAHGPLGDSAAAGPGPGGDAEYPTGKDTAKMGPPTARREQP

[6] = biological target: Macrophage colony-stimulating factor 1 receptor (Homo sapiens) (UniProt P07333); assay: Selectivity interaction (KinomeScan (DiscoverX)) EUB0001079a CSF1R; settings: at 1 µM
Chain of Macrophage colony-stimulating factor 1 receptor (Homo sapiens) (P07333 whole entry): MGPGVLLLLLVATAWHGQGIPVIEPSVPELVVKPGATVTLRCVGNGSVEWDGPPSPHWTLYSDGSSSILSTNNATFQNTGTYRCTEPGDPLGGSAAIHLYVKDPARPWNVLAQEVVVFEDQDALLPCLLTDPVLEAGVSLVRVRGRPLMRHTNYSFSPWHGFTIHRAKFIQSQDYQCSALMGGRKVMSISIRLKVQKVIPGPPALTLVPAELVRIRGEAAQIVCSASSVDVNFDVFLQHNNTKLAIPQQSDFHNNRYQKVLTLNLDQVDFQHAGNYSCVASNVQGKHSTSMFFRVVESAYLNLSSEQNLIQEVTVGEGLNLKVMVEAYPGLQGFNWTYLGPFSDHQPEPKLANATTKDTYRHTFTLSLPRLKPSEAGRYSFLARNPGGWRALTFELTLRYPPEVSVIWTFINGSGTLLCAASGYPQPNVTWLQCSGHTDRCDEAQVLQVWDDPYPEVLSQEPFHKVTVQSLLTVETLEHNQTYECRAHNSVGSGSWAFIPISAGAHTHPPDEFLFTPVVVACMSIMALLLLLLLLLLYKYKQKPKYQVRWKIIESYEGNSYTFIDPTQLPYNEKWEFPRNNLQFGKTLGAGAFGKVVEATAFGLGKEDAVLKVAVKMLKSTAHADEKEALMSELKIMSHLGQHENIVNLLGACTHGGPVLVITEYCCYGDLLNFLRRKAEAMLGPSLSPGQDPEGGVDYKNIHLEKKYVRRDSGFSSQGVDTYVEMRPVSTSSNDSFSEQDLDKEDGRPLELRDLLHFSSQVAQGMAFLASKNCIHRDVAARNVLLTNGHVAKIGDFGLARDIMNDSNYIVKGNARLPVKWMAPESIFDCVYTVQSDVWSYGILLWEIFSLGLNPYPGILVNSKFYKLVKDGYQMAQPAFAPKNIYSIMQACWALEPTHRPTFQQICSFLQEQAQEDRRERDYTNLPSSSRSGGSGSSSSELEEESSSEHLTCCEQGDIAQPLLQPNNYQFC

Chain of Rho-associated protein kinase 1 (Homo sapiens) (Q13464 2-1354 limits assumed): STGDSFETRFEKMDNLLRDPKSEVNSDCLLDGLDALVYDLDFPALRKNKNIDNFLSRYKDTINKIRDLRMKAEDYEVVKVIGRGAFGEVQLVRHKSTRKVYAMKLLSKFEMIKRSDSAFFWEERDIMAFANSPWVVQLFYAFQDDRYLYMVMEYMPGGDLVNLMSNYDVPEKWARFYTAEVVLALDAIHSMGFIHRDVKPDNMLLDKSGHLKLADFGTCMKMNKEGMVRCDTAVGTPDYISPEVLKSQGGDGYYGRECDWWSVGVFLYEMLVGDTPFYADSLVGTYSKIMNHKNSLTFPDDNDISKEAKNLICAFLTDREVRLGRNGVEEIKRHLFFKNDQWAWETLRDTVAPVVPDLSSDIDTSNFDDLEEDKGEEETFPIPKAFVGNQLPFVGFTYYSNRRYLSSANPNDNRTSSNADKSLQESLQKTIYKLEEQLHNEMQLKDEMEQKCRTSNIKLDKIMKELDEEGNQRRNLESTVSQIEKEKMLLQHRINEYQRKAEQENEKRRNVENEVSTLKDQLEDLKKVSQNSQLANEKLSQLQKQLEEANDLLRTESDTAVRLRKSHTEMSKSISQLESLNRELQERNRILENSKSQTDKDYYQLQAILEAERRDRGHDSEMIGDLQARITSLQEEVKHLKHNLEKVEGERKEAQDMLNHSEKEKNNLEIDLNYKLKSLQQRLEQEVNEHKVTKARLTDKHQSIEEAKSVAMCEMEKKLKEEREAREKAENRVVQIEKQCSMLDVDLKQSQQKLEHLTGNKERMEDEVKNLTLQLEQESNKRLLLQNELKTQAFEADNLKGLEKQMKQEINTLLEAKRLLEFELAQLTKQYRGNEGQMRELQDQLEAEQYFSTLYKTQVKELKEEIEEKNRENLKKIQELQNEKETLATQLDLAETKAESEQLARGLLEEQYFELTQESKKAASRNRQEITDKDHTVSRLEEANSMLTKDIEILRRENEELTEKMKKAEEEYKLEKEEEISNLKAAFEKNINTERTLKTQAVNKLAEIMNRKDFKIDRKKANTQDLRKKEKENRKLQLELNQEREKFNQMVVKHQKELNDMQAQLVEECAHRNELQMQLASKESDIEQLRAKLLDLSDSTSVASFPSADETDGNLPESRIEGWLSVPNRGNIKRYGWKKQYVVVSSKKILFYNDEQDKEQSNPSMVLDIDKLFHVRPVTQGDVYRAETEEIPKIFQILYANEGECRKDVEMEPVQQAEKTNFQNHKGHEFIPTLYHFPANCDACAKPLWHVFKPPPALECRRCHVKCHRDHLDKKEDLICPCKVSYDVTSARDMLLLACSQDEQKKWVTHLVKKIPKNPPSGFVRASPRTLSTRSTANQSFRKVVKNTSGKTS
Chain of Serine/threonine-protein kinase PAK 1 (Homo sapiens) (Q13153 whole entry): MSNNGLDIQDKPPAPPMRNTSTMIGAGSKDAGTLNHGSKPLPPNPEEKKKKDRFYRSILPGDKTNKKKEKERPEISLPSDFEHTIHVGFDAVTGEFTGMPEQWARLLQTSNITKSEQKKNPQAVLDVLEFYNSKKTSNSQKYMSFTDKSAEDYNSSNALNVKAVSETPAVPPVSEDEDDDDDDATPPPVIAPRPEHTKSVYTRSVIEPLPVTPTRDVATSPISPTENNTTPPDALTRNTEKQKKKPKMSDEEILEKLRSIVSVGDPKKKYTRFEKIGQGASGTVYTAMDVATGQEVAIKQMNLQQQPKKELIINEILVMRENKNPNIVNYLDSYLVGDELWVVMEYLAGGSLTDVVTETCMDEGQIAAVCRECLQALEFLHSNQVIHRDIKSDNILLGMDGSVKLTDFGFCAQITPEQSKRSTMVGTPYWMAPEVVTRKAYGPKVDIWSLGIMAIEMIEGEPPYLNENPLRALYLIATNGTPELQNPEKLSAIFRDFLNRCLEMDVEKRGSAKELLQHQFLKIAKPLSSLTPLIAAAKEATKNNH
Chain of Serine/threonine-protein kinase pim-1 (P11309 whole entry, looked up): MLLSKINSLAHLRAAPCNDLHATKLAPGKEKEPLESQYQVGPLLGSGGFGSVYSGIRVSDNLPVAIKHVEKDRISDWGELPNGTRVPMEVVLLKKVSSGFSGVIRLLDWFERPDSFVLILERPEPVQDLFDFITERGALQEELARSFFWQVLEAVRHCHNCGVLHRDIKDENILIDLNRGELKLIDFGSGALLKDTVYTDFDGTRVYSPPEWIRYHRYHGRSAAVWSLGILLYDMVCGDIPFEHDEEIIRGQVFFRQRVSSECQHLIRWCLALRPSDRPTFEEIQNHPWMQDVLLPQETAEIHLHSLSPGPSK

% of control [1]: 100% | % of control [2]: 100%
SMILES: CCN(CC)CCCCNc1ncc2cc(-c3cc(OC)cc(OC)c3)c(NC(=O)NC(C)(C)C)nc2n1

% of inhibition ([3]; at 0.01 µM): 5.1% | % of inhibition ([3]; at 0.04 µM): -15.8% | % of inhibition ([3]; at 0.2 µM): -12.3% | % of inhibition ([3]; at 1 µM): -2.3% | % of inhibition ([3]; at 5 µM): -20.8% | % of inhibition ([4]; at 0.01 µM): 12.6% | % of inhibition ([4]; at 0.04 µM): -4.3% | % of inhibition ([4]; at 0.2 µM): -10.6% | % of inhibition ([4]; at 1 µM): 18.3% | % of inhibition ([4]; at 5 µM): 53.9%
SMILES: CC[C@@H]1[C@H](F)C(=O)N[C@@H]1COc1nccc2cc(C(N)=O)c(OC)cc12 [ZIMLOVISERTIB]

SMILES: Nc1cnc(N2CCc3cc(S(=O)(=O)Nc4c(F)cc(Cl)cc4F)cc(N4CCCC4=O)c32)nc1 [TP-020n]
% of control [5]: 80% | % of control [6]: 100%

Reference: ChEMBL document CHEMBL5465560, “Selectivity Literature for EUbOPEN Chemogenomic Library” (2024)
